Literature values as cited in patent US20260131010A1, “MENIN PROTEOLYSIS TARGETING CHIMERAS (PROTACS)” (Board of Regents, The University of Texas System, priority 2022, published 2026).

Test system: MLL leukemias
Settings: Borkin, et al. Cancer Cell 2015, 27(4) 589-602

SMILES: Cc1c(CN2CCC(Nc3ncnc4sc(CC(F)(F)F)cc34)CC2)ccc2c1cc(C#N)n2Cc1cn[nH]c1 [MI-503]
- efficacy in mouse models of MLL leukemias: effective
